# Reference: ChEMBL document CHEMBL5154788 (Eur J Med Chem, 2022)
# pIC50: −log10 of the molar value.
# How the values were obtained:
# [1] = molecular target: Transient receptor potential cation channel subfamily V member 1 (Homo sapiens, UniProt Q8NER1); assay: Antagonist activity at human TRPV1 expressed in CHO cells assessed as inhibition of capsaicin-induced Ca2+ influx incubated for 30 mins by FLIPR method; type: cell-based
# [2] = Toxicity in rat assessed as increase in body temperature at 30 mg/kg, po measured for 180 mins by electric probe thermometer analysis; type: organism-based; settings: in vivo, 3 h
# [3] = Ratio of drug level in brain to plasma in rat at 10 mg/kg, iv measured after 0.5 hrs by HPLC analysis; type: ADME, organism-based; settings: read-out: BPR
# [4] = molecular target: Transient receptor potential cation channel subfamily M member 8 (Homo sapiens, UniProt Q7Z2W7); assay: Antagonist activity against human TRPM8 expressed in HEK293 cells assessed as inhibition of […]-gated currents by whole cell patch clamp electrophysiology; type: cell-based
# Chain of Transient receptor potential cation channel subfamily M member 8 (Q7Z2W7 whole entry): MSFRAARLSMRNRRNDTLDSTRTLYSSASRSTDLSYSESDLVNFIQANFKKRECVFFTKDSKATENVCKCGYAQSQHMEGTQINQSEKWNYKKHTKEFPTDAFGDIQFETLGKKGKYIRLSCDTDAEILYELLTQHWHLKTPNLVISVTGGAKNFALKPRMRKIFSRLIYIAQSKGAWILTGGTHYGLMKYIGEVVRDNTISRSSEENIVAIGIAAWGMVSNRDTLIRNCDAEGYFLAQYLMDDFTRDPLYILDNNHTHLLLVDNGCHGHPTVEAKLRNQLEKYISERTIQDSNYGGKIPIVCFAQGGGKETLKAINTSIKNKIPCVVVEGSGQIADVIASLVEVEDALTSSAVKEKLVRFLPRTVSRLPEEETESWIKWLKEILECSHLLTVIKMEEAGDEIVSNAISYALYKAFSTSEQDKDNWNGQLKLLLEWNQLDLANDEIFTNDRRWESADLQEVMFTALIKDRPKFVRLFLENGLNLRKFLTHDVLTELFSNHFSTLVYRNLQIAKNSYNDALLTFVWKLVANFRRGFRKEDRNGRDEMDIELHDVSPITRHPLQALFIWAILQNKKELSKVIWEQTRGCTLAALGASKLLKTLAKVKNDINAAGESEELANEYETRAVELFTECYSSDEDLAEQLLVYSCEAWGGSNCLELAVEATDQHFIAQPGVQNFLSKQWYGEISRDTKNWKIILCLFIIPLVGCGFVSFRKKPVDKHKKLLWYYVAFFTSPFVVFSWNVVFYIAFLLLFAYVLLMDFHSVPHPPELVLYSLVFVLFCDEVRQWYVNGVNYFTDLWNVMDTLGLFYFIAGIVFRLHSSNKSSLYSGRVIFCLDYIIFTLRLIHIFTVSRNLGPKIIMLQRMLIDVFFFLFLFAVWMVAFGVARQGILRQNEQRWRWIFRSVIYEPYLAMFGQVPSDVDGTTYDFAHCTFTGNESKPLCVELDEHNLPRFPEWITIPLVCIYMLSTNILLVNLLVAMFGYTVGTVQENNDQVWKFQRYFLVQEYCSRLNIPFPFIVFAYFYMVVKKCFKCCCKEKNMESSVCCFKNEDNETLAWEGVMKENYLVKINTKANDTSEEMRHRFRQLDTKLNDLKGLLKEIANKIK
# [5] = molecular target: T1, Transient receptor potential cation channel subfamily V member 3 (Homo sapiens, UniProt Q8NET8); assay: Antagonist activity against human TRPV3 expressed in HEK293 cells assessed as inhibition of 2-APb induced intracellular calcium accumulation incubated for 30 mins by FLIPR assay; type: cell-based
# T1 sequence (Q8NET8 whole entry): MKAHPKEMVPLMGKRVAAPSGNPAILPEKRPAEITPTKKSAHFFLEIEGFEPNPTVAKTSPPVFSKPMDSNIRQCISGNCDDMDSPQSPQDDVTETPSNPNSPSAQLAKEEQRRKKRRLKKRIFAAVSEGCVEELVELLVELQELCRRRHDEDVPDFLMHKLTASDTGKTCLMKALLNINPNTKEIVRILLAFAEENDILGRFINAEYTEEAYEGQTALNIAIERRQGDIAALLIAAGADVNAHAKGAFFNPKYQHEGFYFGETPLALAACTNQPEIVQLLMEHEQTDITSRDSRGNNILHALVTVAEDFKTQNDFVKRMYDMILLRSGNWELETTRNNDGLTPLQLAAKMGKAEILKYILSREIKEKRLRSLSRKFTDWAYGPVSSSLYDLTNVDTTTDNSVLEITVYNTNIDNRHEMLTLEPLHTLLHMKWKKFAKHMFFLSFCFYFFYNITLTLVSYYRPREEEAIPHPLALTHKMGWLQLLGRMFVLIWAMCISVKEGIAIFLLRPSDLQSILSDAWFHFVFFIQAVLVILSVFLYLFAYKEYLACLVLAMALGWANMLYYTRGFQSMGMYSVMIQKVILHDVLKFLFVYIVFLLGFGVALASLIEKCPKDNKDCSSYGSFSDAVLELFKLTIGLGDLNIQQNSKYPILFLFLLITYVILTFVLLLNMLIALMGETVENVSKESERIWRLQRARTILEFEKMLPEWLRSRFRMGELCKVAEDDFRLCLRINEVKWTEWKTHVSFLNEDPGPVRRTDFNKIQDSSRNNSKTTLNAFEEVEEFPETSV
# [6] = MRT in Sprague-Dawley rat at 10 mg/kg, iv measured after 12 hrs by UPLC-QTOF/MS analysis; type: ADME, organism-based; settings: in vivo
# [7] = Oral bioavailability in Sprague-Dawley rat at 20 mg/kg measured after 12 hrs by UPLC-QTOF/MS analysis; type: ADME, organism-based; settings: in vivo
# [8] = Volume of distribution in Sprague-Dawley rat at 20 mg/kg, po measured after 12 hrs post dose by UPLC-QTOF/MS analysis; type: ADME, organism-based; settings: in vivo
# [9] = Clearance in Sprague-Dawley rat at 20 mg/kg, po measured after 12 hrs by UPLC-QTOF/MS analysis; type: ADME, organism-based; settings: in vivo
# [10] = AUC (0 to infinity) in Sprague-Dawley rat at 20 mg/kg, po by UPLC-QTOF/MS analysis; type: ADME, organism-based; parameters: time infinity, dose 20 mg/kg, route po; settings: in vivo
# [11] = Elimination rate constant (K10) in Sprague-Dawley rat at 20 mg/kg, po measured after 12 hrs by UPLC-QTOF/MS analysis; type: ADME, organism-based; settings: in vivo
# [12] = Tmax in Sprague-Dawley rat at 20 mg/kg, po measured after 12 hrs by UPLC-QTOF/MS analysis; type: ADME, organism-based; settings: in vivo
# [13] = Half life in Sprague-Dawley rat at 10 mg/kg, iv measured after 12 hrs by UPLC-QTOF/MS analysis; type: ADME, organism-based; settings: in vivo
# [14] = Cmax in Sprague-Dawley rat at 20 mg/kg, po measured after 12 hrs by UPLC-QTOF/MS analysis; type: ADME, organism-based; parameters: dose 20 mg/kg, time 12 hrs, route po; settings: in vivo
# [15] = Elimination rate constant half life (k10) in Sprague-Dawley rat at 20 mg/kg, po measured after 12 hrs by UPLC-QTOF/MS analysis; type: ADME, organism-based; settings: in vivo, read-out: beta t1/2 (converted)
# [16] = Aqueous solubility of compound at pH 7.4 incubated for 2 hrs by LC-UV/MS analysis; type: physicochemical; settings: buffer
# [17] = Toxicity in rat assessed as effect on body temperature at 10 to 100 mg/kg, po measured for 120 mins by electric probe thermometer analysis; type: organism-based; settings: in vivo, 2 h, dose 10-100 mg/kg
# [18] = Clearance in Sprague-Dawley rat at 10 mg/kg, iv measured after 12 hrs by UPLC-QTOF/MS analysis; type: ADME, organism-based; settings: in vivo
# [19] = MRT in Sprague-Dawley rat at 20 mg/kg, po measured after 12 hrs by UPLC-QTOF/MS analysis; type: ADME, organism-based; settings: in vivo
# [20] = molecular target: Transient receptor potential cation channel subfamily A member 1 (Homo sapiens, UniProt O75762); assay: Antagonist activity against human TRPA1 expressed in HEK293 cells assessed as inhibition of AITC-induced intracellular calcium accumulation incubated for 30 mins by FLIPR assay; type: cell-based
# Chain of Transient receptor potential cation channel subfamily A member 1 (O75762 whole entry): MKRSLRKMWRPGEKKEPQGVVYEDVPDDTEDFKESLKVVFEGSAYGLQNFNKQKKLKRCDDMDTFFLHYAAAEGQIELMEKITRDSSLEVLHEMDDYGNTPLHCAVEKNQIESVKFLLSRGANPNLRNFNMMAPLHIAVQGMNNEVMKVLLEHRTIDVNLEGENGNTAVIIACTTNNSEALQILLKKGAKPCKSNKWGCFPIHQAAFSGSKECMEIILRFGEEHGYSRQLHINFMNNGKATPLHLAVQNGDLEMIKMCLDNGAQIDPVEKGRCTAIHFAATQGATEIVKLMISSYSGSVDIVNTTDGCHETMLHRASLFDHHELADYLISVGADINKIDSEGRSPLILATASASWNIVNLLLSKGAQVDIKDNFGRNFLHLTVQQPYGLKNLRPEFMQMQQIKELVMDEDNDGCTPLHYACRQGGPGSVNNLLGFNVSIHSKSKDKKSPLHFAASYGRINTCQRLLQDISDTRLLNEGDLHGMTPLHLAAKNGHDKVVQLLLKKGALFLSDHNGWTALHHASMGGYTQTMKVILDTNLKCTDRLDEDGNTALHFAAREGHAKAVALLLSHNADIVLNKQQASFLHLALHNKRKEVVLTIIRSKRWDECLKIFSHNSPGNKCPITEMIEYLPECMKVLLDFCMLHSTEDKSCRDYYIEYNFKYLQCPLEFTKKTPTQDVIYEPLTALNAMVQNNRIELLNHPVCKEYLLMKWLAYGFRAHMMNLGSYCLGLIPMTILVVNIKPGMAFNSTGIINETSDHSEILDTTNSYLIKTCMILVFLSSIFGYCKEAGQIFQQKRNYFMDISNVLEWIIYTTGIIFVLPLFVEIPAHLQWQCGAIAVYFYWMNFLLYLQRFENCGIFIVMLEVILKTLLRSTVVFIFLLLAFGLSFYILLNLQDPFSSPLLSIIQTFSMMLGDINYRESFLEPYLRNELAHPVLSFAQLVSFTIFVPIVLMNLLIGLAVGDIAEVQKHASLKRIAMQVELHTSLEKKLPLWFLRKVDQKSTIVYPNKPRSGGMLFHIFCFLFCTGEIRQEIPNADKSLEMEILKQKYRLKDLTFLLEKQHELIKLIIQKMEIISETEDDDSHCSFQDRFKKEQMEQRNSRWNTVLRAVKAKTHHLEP
# [21] = Elimination rate constant (K10) in Sprague-Dawley rat at 10 mg/kg, iv measured after 12 hrs by UPLC-QTOF/MS analysis; type: ADME, organism-based; settings: in vivo
# [22] = Drug concentration in rat plasma at 10 mg/kg, iv measured after 0.5 hrs by HPLC analysis; type: ADME, organism-based
# [23] = Drug concentration in rat brain at 10 mg/kg, iv measured after 0.5 hrs by HPLC analysis; type: ADME, organism-based; settings: read-out: Ct
# [24] = AUC (0 to infinity) in Sprague-Dawley rat at 10 mg/kg, iv by UPLC-QTOF/MS analysis; type: ADME, organism-based; parameters: time infinity, dose 10 mg/kg, route iv; settings: in vivo
# Chain of Transient receptor potential cation channel subfamily V member 1 (Q8NER1 whole entry): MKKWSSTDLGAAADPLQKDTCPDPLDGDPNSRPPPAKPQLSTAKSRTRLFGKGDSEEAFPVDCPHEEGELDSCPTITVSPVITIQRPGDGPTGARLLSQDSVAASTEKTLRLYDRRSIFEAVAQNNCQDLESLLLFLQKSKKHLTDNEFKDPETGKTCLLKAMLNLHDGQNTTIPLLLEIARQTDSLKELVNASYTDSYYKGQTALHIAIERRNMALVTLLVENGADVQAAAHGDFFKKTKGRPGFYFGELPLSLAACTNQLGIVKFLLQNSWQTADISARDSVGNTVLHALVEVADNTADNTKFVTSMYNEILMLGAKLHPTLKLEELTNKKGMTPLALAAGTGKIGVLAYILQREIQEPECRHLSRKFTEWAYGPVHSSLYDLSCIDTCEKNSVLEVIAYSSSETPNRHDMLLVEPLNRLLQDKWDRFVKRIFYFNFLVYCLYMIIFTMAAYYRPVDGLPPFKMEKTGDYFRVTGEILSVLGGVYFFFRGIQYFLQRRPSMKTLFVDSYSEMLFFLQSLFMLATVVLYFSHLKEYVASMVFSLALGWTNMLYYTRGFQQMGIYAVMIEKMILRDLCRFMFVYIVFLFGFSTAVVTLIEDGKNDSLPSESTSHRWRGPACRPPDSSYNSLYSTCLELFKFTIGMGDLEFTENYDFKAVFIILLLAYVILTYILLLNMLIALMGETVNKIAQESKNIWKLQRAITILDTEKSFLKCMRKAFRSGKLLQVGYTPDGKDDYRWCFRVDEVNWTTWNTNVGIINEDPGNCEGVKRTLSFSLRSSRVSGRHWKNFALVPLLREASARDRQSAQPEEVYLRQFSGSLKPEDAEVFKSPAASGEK
smiles,measurement,setting,value
O=C(Nc1ccc(F)cc1)N1CCC[C@H]1c1nc(-c2ccccc2)cs1,pIC50,[1],7.50
Cc1ccc(NC(=O)N2CCC[C@H]2c2ncc(-c3ccccc3)s2)c([N+](=O)[O-])c1,pIC50,[1],7.62
O=C(Nc1ccccc1Br)N[C@@H]1CCN(c2ccc(C(F)(F)F)cn2)C1 [SB-705498],Activity,[2],Non-Toxic
same,Kp at 0.5 h,[3],0.5
same,pIC50,[4],5.80
same,pIC50,[1],8.03
O=C(Nc1cccc2cnccc12)N1CCC[C@H]1c1nc(-c2ccccc2)cs1,pIC50,[1],7.17
CC(C)c1cccc(NC(=O)N2CCC[C@H]2c2ncc(-c3ccccc3)s2)c1,pIC50,[5],< 4.00
same,MRT,[6],9.18 min
same,bioavailability,[7],60%
same,Vd,[8],16 L/kg
same,clearance,[9],367 mL/min/kg
same,AUC,[10],598.873 ng·h/mL
same,k el at 12 h,[11],0.000315 s⁻¹
same,Activity,[2],Non-Toxic
same,Tmax,[12],42.7 min
same,half-life,[13],6.36 min
same,Cmax,[14],311 ng/mL
same,half-life,[15],31.6 min
same,solubility at 2 h,[16],26 µg/mL
same,Activity,[17],Non-Toxic
same,clearance,[18],400 mL/min/kg
same,Kp at 0.5 h,[3],1.66
same,MRT,[19],85.6 min
same,pIC50,[20],< 4.00
same,k el at 12 h,[21],0.00335 s⁻¹
same,concentration at 0.5 h,[22],1400 ng/g
same,concentration at 0.5 h,[23],2310 ng/g
same,AUC,[24],495.955 ng·h/mL
same,pIC50,[1],8.58
O=C(Nc1cccc2cnccc12)N1CCC[C@H]1c1nc(-c2ccc(F)cc2)cs1,pIC50,[1],7.61
O=C(Nc1cccc2cnccc12)N1CCC[C@H]1c1nc(-c2cccc(F)c2)cs1,pIC50,[1],7.09
CC(C)c1ccccc1NC(=O)N1CCC[C@H]1c1ncc(-c2ccccc2)s1,pIC50,[1],8.27
O=C(Nc1ccc(Cl)cc1)N1CCC[C@H]1c1nc(-c2ccc(F)cc2)cs1,pIC50,[1],7.97
O=C(Nc1ccc(F)cc1)N1CCC[C@H]1c1nc(-c2ccc(F)cc2)cs1,pIC50,[1],7.61
O=C(Nc1ccccc1[N+](=O)[O-])N1CCC[C@H]1c1ncc(-c2ccccc2)s1,pIC50,[1],7.91
COc1ccccc1NC(=O)N1CCC[C@H]1c1nc(-c2ccc(F)cc2)cs1,Activity,[2],Toxic
same,pIC50,[1],8.24
Cc1ccc(C)c(NC(=O)N2CCC[C@H]2c2nc(-c3ccccc3)cs2)c1,pIC50,[1],7.35
